Laboratory results as given in PubChem BioAssay (NCI).
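A five-concentration, 48-hour dose response in 96-well plates underlies each endpoint, interpolated linearly between surrounding concentrations. TGI denotes the concentration required for complete inhibition of growth.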

Key:
Assay in all cases: growth of human tumour cells (NCI), 48 h
[1] = system: HOP-92 NSCLC
[2] = system: SN12C renal
[3] = system: SF-539 CNS
[4] = system: HCC-2998 colon
[5] = system: HL-60(TB) leukemia
[6] = system: COLO 205 colon
[7] = system: DMS 273 small cell lung
[8] = system: LOX IMVI melanoma
[9] = system: HOP-18 NSCLC
[10] = system: CAKI-1 renal
[11] = system: K-562 leukemia
[12] = system: M19-MEL melanoma
[13] = system: IGROV1 ovarian
[14] = system: SK-OV-3 ovarian
[15] = system: SW-620 colon
[16] = system: DMS 114 small cell lung
[17] = system: RXF-631 renal
[18] = system: OVCAR-8 ovarian
[19] = system: TK-10 renal
[20] = system: SNB-19 CNS
[21] = system: NCI-H460 lung
[22] = system: OVCAR-3 ovarian
[23] = system: 786-0 renal
[24] = system: LXFL 529 NSCLC
[25] = system: KM20L2 colon
[26] = system: HT29 colon
[27] = system: RPMI-8226 leukemia
[28] = system: SK-MEL-5 melanoma
[29] = system: SNB-78 CNS
[30] = system: OVCAR-4 ovarian
[31] = system: HOP-62 NSCLC
[32] = system: UO-31 renal
[33] = system: OVCAR-5 ovarian
[34] = system: HCT-15 colon
[35] = system: MOLT-4 leukemia
[36] = system: SF-268 CNS
[37] = system: UACC-257 melanoma
[38] = system: SK-MEL-2 melanoma
[39] = system: SNB-75 CNS
[40] = system: CCRF-CEM leukemia
[41] = system: A549 NSCLC
[42] = system: DLD-1 colon
[43] = system: ACHN renal
[44] = system: UACC-62 melanoma
[45] = system: HCT-116 colon
[46] = system: NCI-H23 lung
[47] = system: KM12 colon
[48] = system: M14 melanoma
[49] = system: SF-295 CNS
[50] = system: EKVX NSCLC
[51] = system: MALME-3M melanoma
[52] = system: SR leukemia
[53] = system: U251 CNS
[54] = system: NCI-H522 lung
[55] = system: A498 renal
[56] = system: RXF 393 renal
[57] = system: SK-MEL-28 melanoma
[58] = system: NCI-H226 lung

In the case of `CC1CC2OC(=O)CC2C[C@@H]1O[Si](C)(C)C(C)(C)C` (stereo partly drawn), the TGI [1] is reported as 34.7 µM, the TGI [2] is reported as over 100 µM and the TGI [3] is reported as over 100 µM. The TGI [4] was over 100 µM, the TGI [5] was 45.5 µM and the TGI [6] was over 100 µM. For the same compound, the TGI [7] was over 100 µM, the TGI [8] was over 100 µM and the TGI [9] was over 100 µM. For the same compound, the TGI [10] was over 100 µM, the TGI [11] was over 100 µM and the TGI [12] was over 100 µM. The TGI [13] was over 100 µM, the TGI [14] was over 100 µM and the TGI [15] was over 100 µM. For the same compound, the TGI [16] was 89.4 µM, the TGI [17] was over 100 µM and the TGI [18] was over 100 µM. For the same compound, the TGI [19] was over 100 µM, the TGI [20] was over 100 µM and the TGI [21] was over 100 µM. It also gave a TGI [22] of over 100 µM, a TGI [23] of over 100 µM and a TGI [24] of over 100 µM. For the same compound, the TGI [25] was over 100 µM, the TGI [26] was over 100 µM and the TGI [27] was 51.8 µM. It also gave a TGI [28] of 97.4 µM, a TGI [29] of over 100 µM and a TGI [30] of over 100 µM. It also gave a TGI [31] of over 100 µM, a TGI [32] of over 100 µM and a TGI [33] of over 100 µM. For the same compound, the TGI [34] was over 100 µM, the TGI [35] was 56.7 µM and the TGI [36] was over 100 µM. The TGI [37] was over 100 µM, the TGI [38] was over 100 µM and the TGI [39] was over 100 µM. It also gave a TGI [40] of over 100 µM, a TGI [41] of over 100 µM and a TGI [42] of over 100 µM. The TGI [43] was over 100 µM, the TGI [44] was over 100 µM and the TGI [45] was over 100 µM. The TGI [46] was over 100 µM, the TGI [47] was over 100 µM and the TGI [48] was over 100 µM. The TGI [49] was over 100 µM, the TGI [50] was over 100 µM and the TGI [51] was over 100 µM.
`C=C1CCC2C(C)(CO)C(O)CCC2(C)C1CC(O)/C(=C/CO)C(=O)O` (stereo not drawn) was tested, and the TGI [1] was over 100 µM, the TGI [2] was over 100 µM and the TGI [3] was over 100 µM. The TGI [4] was over 100 µM, the TGI [5] was over 100 µM and the TGI [6] was over 100 µM. It also gave a TGI [52] of over 100 µM, a TGI [7] of over 100 µM and a TGI [8] of over 100 µM. It also gave a TGI [9] of over 100 µM, a TGI [10] of over 100 µM and a TGI [53] of over 100 µM. For the same compound, the TGI [11] was over 100 µM, the TGI [12] was over 100 µM and the TGI [13] was over 100 µM. For the same compound, the TGI [14] was over 100 µM, the TGI [15] was over 100 µM and the TGI [16] was over 100 µM. For the same compound, the TGI [17] was over 100 µM, the TGI [18] was over 100 µM and the TGI [19] was over 100 µM. For the same compound, the TGI [54] was over 100 µM, the TGI [20] was over 100 µM and the TGI [21] was over 100 µM. For the same compound, the TGI [23] was over 100 µM, the TGI [24] was over 100 µM and the TGI [25] was over 100 µM. The TGI [26] was over 100 µM, the TGI [27] was over 100 µM and the TGI [28] was over 100 µM. It also gave a TGI [29] of over 100 µM, a TGI [30] of over 100 µM and a TGI [31] of over 100 µM. It also gave a TGI [32] of over 100 µM, a TGI [33] of over 100 µM and a TGI [34] of over 100 µM. The TGI [35] was over 100 µM, the TGI [36] was over 100 µM and the TGI [55] was over 100 µM. For the same compound, the TGI [37] was over 100 µM, the TGI [38] was over 100 µM and the TGI [39] was over 100 µM. It also gave a TGI [40] of over 100 µM, a TGI [41] of over 100 µM and a TGI [42] of over 100 µM. For the same compound, the TGI [56] was over 100 µM, the TGI [43] was over 100 µM and the TGI [44] was over 100 µM. The TGI [45] was over 100 µM, the TGI [47] was over 100 µM and the TGI [48] was over 100 µM. It also gave a TGI [49] of over 100 µM and a TGI [51] of over 100 µM.
`O=C(COc1ccc(/C=C/C(=O)c2ccc(Cl)cc2)cc1)Nc1c(Cl)cccc1Cl` showed a TGI [1] of over 100 µM, a TGI [2] of over 100 µM and a TGI [3] of over 100 µM. The TGI [5] was over 100 µM, the TGI [6] was over 100 µM and the TGI [52] was over 100 µM. The TGI [57] was over 100 µM, the TGI [8] was over 100 µM and the TGI [9] was over 100 µM. It also gave a TGI [10] of over 100 µM, a TGI [53] of over 100 µM and a TGI [12] of over 100 µM. It also gave a TGI [13] of over 100 µM, a TGI [14] of over 100 µM and a TGI [15] of over 100 µM. The TGI [16] was over 100 µM, the TGI [58] was over 100 µM and the TGI [17] was over 100 µM. For the same compound, the TGI [18] was over 100 µM, the TGI [19] was over 100 µM and the TGI [54] was over 100 µM. It also gave a TGI [20] of over 100 µM, a TGI [21] of over 100 µM and a TGI [22] of over 100 µM. For the same compound, the TGI [23] was over 100 µM, the TGI [24] was over 100 µM and the TGI [25] was over 100 µM. For the same compound, the TGI [26] was over 100 µM, the TGI [27] was over 100 µM and the TGI [28] was over 100 µM. It also gave a TGI [29] of over 100 µM, a TGI [30] of over 100 µM and a TGI [31] of over 100 µM. It also gave a TGI [32] of over 100 µM, a TGI [33] of over 100 µM and a TGI [34] of over 100 µM. For the same compound, the TGI [35] was over 100 µM, the TGI [36] was over 100 µM and the TGI [55] was over 100 µM. The TGI [37] was over 100 µM, the TGI [39] was over 100 µM and the TGI [40] was over 100 µM. It also gave a TGI [41] of over 100 µM, a TGI [42] of over 100 µM and a TGI [56] of over 100 µM. The TGI [43] was over 100 µM, the TGI [44] was over 100 µM and the TGI [45] was over 100 µM. The TGI [46] was over 100 µM, the TGI [47] was over 100 µM and the TGI [48] was over 100 µM. The TGI [49] was over 100 µM, the TGI [50] was over 100 µM and the TGI [51] was over 100 µM.
